The record followed here is patent publication US5116855A, “Rhodanine derivatives and pharmaceutical compositions” (Nisshin Flour Milling Co., Ltd., priority 1989, dated 1992).

The target of this assay is T1, aldose reductase (Rattus norvegicus, UniProt P07943).
T1 construct: the lenses were excised and homogenized in cold distilled water; from tissue; host or cells: lens of male SD rats, homogenate supernatant (crude enzyme)
In words: Inhibitory activity against aldose reductase (crude enzyme from rat lenses, NADPH oxidation at 340 nm, D,L-glyceraldehyde substrate). The class given is biochemical. To be noted: aldose reductase from SD rat lenses, pH 6.2, 30° C.; for inhibition at 10 µM: pH 6.2, 10^-5 M; for inhibition at 10 µM / inhibition at 1 µM: read-out: Percentage of inhibition (%); for inhibition at 1 µM: pH 6.2, 10^-6 M. The protocol:
The compounds of the present invention were evaluated for the inhibitory activity against aldose reductase according to the following assay procedure.
Enzyme activity was assayed according to the modification [Biochemical Pharmacology, 25, 2505 (1976)] of the method described in J. Biol. Chem., 240, 877-882 (1965).
SD strain male rats were sacrificed by decapitation, the lenses were excised and homogenized in cold distilled water. The homogenate was then centrifuged and the supernatant was used as the crude aldose reductase solution.
Separately, a 0.1 M sodium phosphate buffer (pH 6.2) containing 0.4 M ammonium sulfate was prepared at 30° C. In this buffer were dissolved the present compound, the crude aldose reductase solution and nicotinamide-adenine dinucleotide phosphate, reduced form (NADPH). The mixture was preincubated at 30° C. for 3 minutes and the reaction was initiated by addition of D,L-glyceraldehyde. In this case, the concentration of the present compound dissolved was 10^-5 M and 10^-6 M, respectively. The total amount of the assay mixture was 1.0 ml, containing 0.16 mM of NADPH, 10 mM of D,L-glyceraldehyde and 0.010-0.016 units of aldose reductase.
The inhibitory activity of the present compounds against aldose reductase was measured using each 1.0 ml of the reaction mixture containing the present compound in the above concentration. In this measurement, the rate of NADPH oxidation was followed by recording the decrease in absorbance at 340 nm. The inhibitory activity of the present compounds against aldose reductase as measured was expressed in percentage of inhibition (%) as a relative activity based on a control value.

Turning to `COC(=O)COc1ccccc1C=C(C)C=C1SC(=S)NC1=O` [Example 63, Methyl 2-[2-methyl-3-(4-oxo-2-thioxo-5-thiazolinylidene)-1-propenyl]phenoxyacetate], the “Percentage of inhibition (%)” value is reported as 80.5% (10^-5 M) and 32.2% (10^-6 M).
`COC(=O)COc1ccc(OC)cc1C=CC(C)=C1SC(=S)NC1=O` [Example 65, Methyl 4-methoxy-2-[3-(4-oxo-2-thioxo-5-thiazolinylidene)-1-butenyl]phenoxyacetate]: the inhibition at 10 µM is 55.2% and the inhibition at 1 µM was 34.3%.
As for `COC(=O)COc1ccc(C(F)(F)F)cc1C=CC(C)=C1SC(=S)NC1=O` [Example 66, Methyl 4-trifluoromethyl-2-[3-(4-oxo-2-thioxo-5-thiazolinylidene)-1-butenyl]phenoxyacetate], the inhibition at 10 µM was determined as 79.9% and the inhibition at 1 µM turned out to be 45.6%.
Take `CC(C=Cc1ccccc1OCC(=O)O)=C1SC(=S)NC1=O` [Example 67, 2-[3-(4-Oxo-2-thioxo-5-thiazolinylidene)-1-butenyl]phenoxyacetic acid]: the inhibition at 10 µM is 95.3% and the inhibition at 1 µM was 79.4%.
On to `CC(=Cc1ccccc1OCC(=O)O)C=C1SC(=S)NC1=O` [Example 68, 2-[2-Methyl-3-(4-oxo-2-thioxo-5-thiazolinylidene)-1-propenyl]phenoxyacetic acid], for which the inhibition at 10 µM was determined as 93.7% and the inhibition at 1 µM was 82.4%.
`COc1cc(CCC(C)=C2SC(=S)NC2=O)ccc1OCC(=O)O` [Example 69, 2-Methoxy-4-[3-(4-oxo-2-thioxo-5-thiazolinylidene)butyl]-phenoxyacetic acid]: the inhibition at 10 µM was found to be 78.4% and the inhibition at 1 µM was found to be 46.4%.
The like results for `CCOc1cc(C=CC(C)=C2SC(=S)NC2=O)ccc1OCC(=O)O` [Example 70] were, in that order, 87.4% and 62.2%.
For the molecule `CCOc1cc(CCC(C)=C2SC(=S)NC2=O)ccc1OCC(=O)O` [Example 71, 2-Ethoxy-4-[3-(4-oxo-2-thioxo-5-thiazolinylidene)butyl]phenoxyacetic acid], the inhibition at 10 µM was determined as 73.8%.
In the case of `COc1cccc(C=CC(C)=C2SC(=S)NC2=O)c1OCC(=O)O` [Example 72, 2-Methoxy-6-[3-(4-oxo-2-thioxo-5-thiazolinylidene)-1-butenyl] phenoxyacetic acid], the inhibition at 10 µM was 80.1% and the inhibition at 1 µM was found to be 24.8%.
As for `COc1cccc(CCC(C)=C2SC(=S)NC2=O)c1OCC(=O)O` [Example 73, 2-Methoxy-6-(3-(4-oxo-2-thioxo-5-thiazolinylidene)butyl]phenoxyacetic acid], the inhibition at 10 µM was found to be 59.2%.
Still for that read-out and setting: then `COc1cc(C=CC(C)=C2SC(=S)NC2=O)cc(OC)c1OCC(=O)O` [Example 74, 2,6-Dimethoxy-4-[3-(4-oxo-2-thioxo-5-thiazolinylidene)-1-butenyl]phenoxyacetic acid], with 74.3%.
In the case of `CC(C=Cc1cc(Cl)ccc1OCC(=O)O)=C1SC(=S)NC1=O` [Example 75, 4-Chloro-2-[3-(4-oxo-2-thioxo-5-thiazolinylidene)-1-butenyl]phenoxyacetic acid], the inhibition at 10 µM was determined as 95.3% and the inhibition at 1 µM was determined as 87.6%.
As to `COc1cc(C=C(C)C=C2SC(=S)NC2=O)ccc1OCC(=O)O` [Example 76, 2-Methoxy-4-[2-methyl-3-(4-oxo-2-thioxo-5-thiazolinylidene)-1-propenyl]phenoxyacetic acid], the inhibition at 10 µM was 88.5% and the inhibition at 1 µM worked out at 58.6%.
The like results for `CC(C=Cc1cc(C(C)C)c(OCC(=O)O)c(C(C)C)c1)=C1SC(=S)NC1=O` [Example 77, 2,6-Diisopropyl-4-[3-(4-oxo-2-thioxo-5-thiazolinylidene)-1-butenyl]phenoxyacetic acid] were, in that order, 82.8% and 41.4%.
In the same order, the values of `COc1cc(C=CC(C)=C2SC(=S)N(C)C2=O)ccc1OCC(=O)O` [Example 78, 2-Methoxy-4-[3-(3-methyl-4-oxo-2-thioxo-5-thiazolinylidene)-1-butenyl]phenoxyacetic acid] are 87.1% and 65.9%.
Take `CC(C=Cc1cc(Br)ccc1OCC(=O)O)=C1SC(=S)NC1=O` [Example 79, 4-Bromo-2-[3-(4-oxo-2-thioxo-5-thiazolinylidene)-1-butenyl]phenoxyacetic acid]: the inhibition at 10 µM was determined as 95.8% and the inhibition at 1 µM was 86.1%.
The like results for `CC(C=Cc1cc(Cl)cc(Cl)c1OCC(=O)O)=C1SC(=S)NC1=O` [Example 80, 2,4-Dichloro-6-[3-(4-oxo-2-thioxo-5-thiazolinylidene)-1-butenyl]phenoxyacetic acid] were, in that order, 86.6% and 43%.
With `CC(C=Cc1cc(Br)cc(Br)c1OCC(=O)O)=C1SC(=S)NC1=O` [Example 81, 2,4-Dibromo-6-[3-(4-oxo-2-thioxo-5-thiazolinylidene)-1-butenyl]phenoxyacetic acid], the inhibition at 10 µM was 75.4%.
`COc1ccc(C=CC(C)=C2SC(=S)NC2=O)cc1OCC(=O)O` [Example 82, 2-Methoxy-5-[3-(4-oxo-2-thioxo-5-thiazolinylidene)-1-butenyl]phenoxyacetic acid]: the inhibition at 10 µM came out at 67.6% and the inhibition at 1 µM was determined as 22.1%.
`CCCC(=Cc1ccccc1OCC(=O)O)C=C1SC(=S)NC1=O` [Example 84, 2-[2-Propyl-3-(4-oxo-2-thioxo-5-thiazolinylidene)-1-propenyl]phenoxyacetic acid]: the inhibition at 10 µM came to 92% and the inhibition at 1 µM amounted to 77.6%.
In the case of `CC(C=Cc1cc(C(C)C)ccc1OCC(=O)O)=C1SC(=S)NC1=O` [Example 85, 4-Isopropyl-2-[3-(4-oxo-2-thioxo-5-thiazolinylidene)-1-butenyl]phenoxyacetic acid], the inhibition at 10 µM came out at 92% and the inhibition at 1 µM is 77.6%.
Consider `CC(=Cc1ccccc1OCC(=O)O)C=C1SC(=S)NC1=O` [Example 86, 2-[2-Methyl-3-(4-oxo-2-thioxo-5-thiazolinylidene)-1-propenyl]phenoxyacetic acid], for which the “Percentage of inhibition (%)” value was 89.7% (10^-5 M) and 69.6% (10^-6 M).
As to `CC(C=Cc1cc(C)c(OCC(=O)O)c(C)c1)=C1SC(=S)NC1=O` [Example 87, 2,6-Dimethyl-4-[3-(4-oxo-2-thioxo-5-thiazolinylidene)-1-butenyl]phenoxyacetic acid], the inhibition at 10 µM was determined as 89.6% and the inhibition at 1 µM came out at 60.5%.
As to `COc1ccc(OCC(=O)O)c(C=CC(C)=C2SC(=S)NC2=O)c1` [Example 88, 4-Methoxy-2-[3-(4-oxo-2-thioxo-5-thiazolinylidene)-1-butenyl]phenoxyacetic acid], the inhibition at 10 µM worked out at 93.3% and the inhibition at 1 µM came out at 79.1%.
With `CC(C=Cc1cc(C(F)(F)F)ccc1OCC(=O)O)=C1SC(=S)NC1=O` [Example 89, 4-Trifluoromethyl-2-[3-(4-oxo-2-thioxo-5-thiazolinylidene)-1-butenyl]phenoxyacetic acid], the inhibition at 10 µM was found to be 92.9% and the inhibition at 1 µM is 85.7%.
With “Ethyl 4-[3-(4-oxo-2-thioxo-5-thiazolidinylidene)-1-butenyl]-methoxyphenoxyacetate [Example 15]”, the “Percentage of inhibition (%)” value by setting is: (10^-5 M) 66.7%; (10^-6 M) 35.3%.
